Here are results for 11 compounds from ChEMBL document CHEMBL6092145, “Recent advances in the design of small molecular drugs with acrylamides covalent warheads” (Bioorg Med Chem, 2024).

Structures are written as SMILES.

In data set [1] the target is Epidermal growth factor receptor (Homo sapiens, UniProt P00533).
The target of data set [2] is Tyrosine-protein kinase Lck (Homo sapiens, UniProt P06239).
Description: Inhibition of LCK (unknown origin) using TK as substrate incubated for 30 mins by HTRF assay
The target in data set [3] is Tyrosine-protein kinase Lyn (Homo sapiens, UniProt P07948).
Description: Inhibition of LYN (unknown origin)
Data set [4] addresses Tyrosine-protein kinase Blk (Homo sapiens, UniProt P51451).
Description: Inhibition of BLK (unknown origin)
For data set [5], the system named is NCI-H358. Description: cells. In kind it is functional, cell-based. The following applies: Homo sapiens.
Description: Antiproliferative activity against human NCI-H358 cells assessed as reduction in cell viability
Data set [6] deals with NCI-H358. Put plainly: cells. In kind it is functional, cell-based. The note with it: Homo sapiens, NCI-H358, 72 h.
Description: Antiproliferative activity against human NCI-H358 cells assessed as reduction in cell growth incubated for 72 hrs by cell-titer glo assay
For data set [7], the target named is Tyrosine-protein kinase BTK (Homo sapiens, UniProt Q06187).
Chain of Tyrosine-protein kinase BTK (Q06187 whole entry): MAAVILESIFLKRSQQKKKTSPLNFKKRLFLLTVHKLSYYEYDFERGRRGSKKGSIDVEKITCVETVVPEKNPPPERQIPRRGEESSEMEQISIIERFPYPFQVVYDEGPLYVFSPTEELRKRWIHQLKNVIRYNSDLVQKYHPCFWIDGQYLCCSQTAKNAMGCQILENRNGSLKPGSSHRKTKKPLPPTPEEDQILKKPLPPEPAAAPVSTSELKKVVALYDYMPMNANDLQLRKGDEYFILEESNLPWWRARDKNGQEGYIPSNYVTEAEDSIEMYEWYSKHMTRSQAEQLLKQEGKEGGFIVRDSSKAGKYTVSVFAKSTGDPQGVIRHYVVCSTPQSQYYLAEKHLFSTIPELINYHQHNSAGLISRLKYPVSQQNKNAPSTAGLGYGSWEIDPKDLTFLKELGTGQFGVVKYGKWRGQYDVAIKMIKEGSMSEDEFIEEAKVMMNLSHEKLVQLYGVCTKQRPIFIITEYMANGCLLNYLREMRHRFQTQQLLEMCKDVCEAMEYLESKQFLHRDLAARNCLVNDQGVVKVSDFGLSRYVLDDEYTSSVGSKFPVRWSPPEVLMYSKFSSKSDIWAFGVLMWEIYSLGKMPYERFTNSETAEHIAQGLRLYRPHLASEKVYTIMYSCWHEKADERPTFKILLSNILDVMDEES
Description: Inhibition of BTK (unknown origin)
Another data set can be described thus: clinical. The note with it: human, in vivo, po.

Chain of Tyrosine-protein kinase Blk (P51451 whole entry): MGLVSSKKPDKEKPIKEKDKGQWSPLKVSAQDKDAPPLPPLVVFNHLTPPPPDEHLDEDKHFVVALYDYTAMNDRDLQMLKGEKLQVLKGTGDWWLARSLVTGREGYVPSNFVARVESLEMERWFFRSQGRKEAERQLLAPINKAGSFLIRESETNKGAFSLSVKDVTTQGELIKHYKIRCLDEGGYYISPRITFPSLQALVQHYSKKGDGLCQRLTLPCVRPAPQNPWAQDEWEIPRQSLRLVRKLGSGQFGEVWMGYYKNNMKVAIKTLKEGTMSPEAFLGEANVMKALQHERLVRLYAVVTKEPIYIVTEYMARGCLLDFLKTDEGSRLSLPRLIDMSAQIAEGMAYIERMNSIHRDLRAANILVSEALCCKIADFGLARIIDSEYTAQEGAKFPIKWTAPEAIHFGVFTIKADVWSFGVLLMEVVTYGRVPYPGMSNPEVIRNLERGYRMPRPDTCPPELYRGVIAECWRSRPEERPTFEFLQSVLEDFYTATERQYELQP
Chain of Tyrosine-protein kinase Lyn (P07948 whole entry): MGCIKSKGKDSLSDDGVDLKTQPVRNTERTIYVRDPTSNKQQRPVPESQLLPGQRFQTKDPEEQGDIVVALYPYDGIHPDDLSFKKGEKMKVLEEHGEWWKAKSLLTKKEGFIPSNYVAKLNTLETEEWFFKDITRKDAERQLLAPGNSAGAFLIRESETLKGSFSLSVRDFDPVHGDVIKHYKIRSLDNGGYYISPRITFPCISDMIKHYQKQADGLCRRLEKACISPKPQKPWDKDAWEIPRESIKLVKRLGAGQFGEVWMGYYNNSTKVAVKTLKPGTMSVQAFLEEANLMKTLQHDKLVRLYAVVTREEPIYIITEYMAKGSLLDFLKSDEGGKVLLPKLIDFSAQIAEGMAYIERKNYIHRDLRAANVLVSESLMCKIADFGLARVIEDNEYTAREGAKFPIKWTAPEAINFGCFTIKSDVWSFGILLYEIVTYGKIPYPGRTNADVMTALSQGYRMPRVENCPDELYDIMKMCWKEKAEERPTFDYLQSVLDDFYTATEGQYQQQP
Chain of Epidermal growth factor receptor (P00533 whole entry): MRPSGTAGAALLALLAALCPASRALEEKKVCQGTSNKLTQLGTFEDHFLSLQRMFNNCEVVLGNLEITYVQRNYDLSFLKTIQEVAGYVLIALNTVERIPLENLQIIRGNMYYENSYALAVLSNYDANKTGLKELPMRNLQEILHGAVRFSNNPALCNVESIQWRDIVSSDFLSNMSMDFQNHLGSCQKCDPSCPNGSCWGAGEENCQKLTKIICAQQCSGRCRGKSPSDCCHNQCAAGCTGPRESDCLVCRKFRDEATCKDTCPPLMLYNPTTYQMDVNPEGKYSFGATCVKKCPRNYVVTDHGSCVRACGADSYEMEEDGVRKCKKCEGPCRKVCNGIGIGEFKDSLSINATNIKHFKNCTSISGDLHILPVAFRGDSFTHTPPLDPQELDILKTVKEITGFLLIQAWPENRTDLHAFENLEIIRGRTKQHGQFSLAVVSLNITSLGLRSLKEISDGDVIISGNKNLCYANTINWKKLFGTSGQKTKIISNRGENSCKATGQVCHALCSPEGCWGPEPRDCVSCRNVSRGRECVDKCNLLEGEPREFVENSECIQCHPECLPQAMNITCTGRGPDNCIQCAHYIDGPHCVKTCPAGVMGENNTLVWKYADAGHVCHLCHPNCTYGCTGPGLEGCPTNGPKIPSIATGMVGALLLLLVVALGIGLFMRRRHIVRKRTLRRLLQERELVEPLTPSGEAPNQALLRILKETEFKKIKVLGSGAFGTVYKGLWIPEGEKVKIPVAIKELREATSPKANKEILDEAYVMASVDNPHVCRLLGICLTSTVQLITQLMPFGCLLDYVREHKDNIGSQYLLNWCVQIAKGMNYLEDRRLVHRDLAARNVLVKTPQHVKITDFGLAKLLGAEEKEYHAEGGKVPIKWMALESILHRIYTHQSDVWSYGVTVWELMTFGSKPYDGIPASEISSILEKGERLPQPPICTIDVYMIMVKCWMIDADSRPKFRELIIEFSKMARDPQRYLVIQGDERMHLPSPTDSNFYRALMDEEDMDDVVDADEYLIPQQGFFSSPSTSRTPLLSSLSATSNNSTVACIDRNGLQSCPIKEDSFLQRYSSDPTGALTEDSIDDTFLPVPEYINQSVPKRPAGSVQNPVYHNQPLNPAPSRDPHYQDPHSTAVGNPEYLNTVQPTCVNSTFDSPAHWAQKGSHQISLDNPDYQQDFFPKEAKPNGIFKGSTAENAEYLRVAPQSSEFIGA
Chain of Tyrosine-protein kinase Lck (P06239 whole entry): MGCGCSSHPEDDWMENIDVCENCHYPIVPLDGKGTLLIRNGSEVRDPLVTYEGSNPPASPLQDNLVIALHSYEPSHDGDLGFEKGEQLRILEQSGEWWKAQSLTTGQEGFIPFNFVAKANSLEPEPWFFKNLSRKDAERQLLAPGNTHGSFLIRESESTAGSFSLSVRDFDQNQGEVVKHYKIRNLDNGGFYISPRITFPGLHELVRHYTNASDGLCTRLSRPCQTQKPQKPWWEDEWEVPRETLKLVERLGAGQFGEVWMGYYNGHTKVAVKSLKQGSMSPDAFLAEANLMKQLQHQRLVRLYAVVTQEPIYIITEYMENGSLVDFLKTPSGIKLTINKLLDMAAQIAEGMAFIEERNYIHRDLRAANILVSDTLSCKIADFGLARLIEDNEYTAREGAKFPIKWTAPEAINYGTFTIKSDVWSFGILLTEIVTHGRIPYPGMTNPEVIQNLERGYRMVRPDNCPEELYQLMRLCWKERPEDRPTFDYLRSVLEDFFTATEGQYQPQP
Description for clinical: Oral bioavailability in human

In data set [1], `CN(C)CCSSCCC(=O)NC1CCN(C(=O)COc2ccc(Cl)cc2Cl)CC1` showed an IC50 greater than 10000 nM.

Consider `Nc1ncnc2c1c(-c1ccc(Oc3ccccc3)cc1)nn2C1CCCC1`, for which the results for the IC50 in data set [2] and in data set [3] were 4.6 nM and 2.5 nM, respectively.

In turn, `CN(C)CCSSCCNC(=O)C1CCN(C(=O)CSc2ccc(Cl)cc2)CC1` showed a 50% inhibitory concentration (IC50) in data set [4] greater than 10000 nM.

`C=CC(=O)N1CCN(c2ncnc3c(F)c(-c4c(O)cccc4F)c(Cl)cc23)CC1` yielded an IC50 with NCI-H358 [5] of 939 nM.

`C=CC(=O)N1CC(N2CCN(C(=O)CNc3cc(C4(C)CC4)c(Cl)cc3O)CC2)C1`: the IC50 in the data set with NCI-H358 [5] was 250 nM.

In data set [4], `CN(C)CCSSCCC(=O)Nc1cc(-c2cccs2)[nH]n1` gave an IC50 greater than 10000 nM.

Consider `C=C(F)C(=O)N1CCN(c2nc(OC[C@@H]3CCCN3CCCOCCC(=O)N[C@H](C(=O)N3C[C@H](O)C[C@H]3C(=O)NCc3ccc(-c4scnc4C)cc3)C(C)(C)C)nc3c2CCN(c2cccc4cccc(Cl)c24)C3)C[C@@H]1CC#N`, for which it took 520 nM to reach half-maximal inhibition in the data set with NCI-H358 [6] (IC50).

Consider `C=CC(=O)NC1Cn2c(c(-c3ccc(Oc4ccccc4)cc3)c3c(N)ncnc32)C1=C` (centres undefined), for which the IC50 stood at 0.4 nM in data set [7] and 0.5 nM in data set [4].

Compound `C=CC(=O)N1CCN(C(=O)CNc2cc(Cl)c(Cl)cc2OC)CC1` came in with a half-maximal inhibitory concentration (IC50) in data set [4] greater than 1000 nM.

As for `C=CC(=O)N1CCN(c2nc(OC[C@@H]3CCCN3C)nc3c2CCN(c2cccc4cccc(Cl)c24)C3)C[C@@H]1CC#N`, in the data set with NCI-H358 [6], 1 nM corresponded to half-maximal inhibition (IC50). The compound further returned a bioavailability in “clinical” of 16.9%.

`C=CC(=O)N1CCN(c2nc(=O)n(-c3c(C)ccnc3C(C)C)c3nc(-c4c(O)cccc4F)c(F)cc23)[C@@H](C)C1` [SOTORASIB] yielded an IC50 in the data set on NCI-H358 [5] of 68 nM.
